Measurements reported in paper PMC3390464 (Phytochemistry, 2012).

Biological target: Sigma 1 receptor
Test: competitive radioligand binding assay

Ki: 2900 nM
Substance: 9,13-epoxy-6-hydroxylabdan-15,16-olide [compound 11]
